Laboratory results from patent publication US11109593B2, “Isoxazolin-5-one derivative and herbicide containing same as active ingredient” (HOKKO CHEMICAL INDUSTRY CO., LTD., priority 2017, dated 2021).

test system: Chenopodium album; assay: Test Example 4: herbicidal effect test by treatment of leave and stem in dry field farming (seven days after seeding); assay type: in vivo; details: 120 g/10a active ingredient; emulsion sprayed seven days after seeding; evaluated 14 days after treatment
Method in brief: (§1)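 Duplicate pots were scored 14 days post-spray by dry weight, herbicidal rate = {1 − treated/untreated average dry weight} × 100. The water-diluted emulsion, equivalent to 120 g active ingredient per 10 ares in 100 L, was applied seven days after sowing 20 seeds each into the upper 1 cm of alluvial soil.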

Row | SMILES | herbicidal effect (herbicidal rate), Chenopodium album [%]
1 | COCC(C)n1oc(=O)c(Cc2ccccc2N(C(=O)c2ccccc2)S(=O)(=O)C(F)(F)F)c1C (stereo not drawn) [Compound 1-479] | 40
2 | COCC(C)n1oc(=O)c(Cc2ccccc2N(C(=O)OC)S(=O)(=O)C(F)(F)F)c1C (stereo not drawn) [Compound 1-587] | 40
3 | Cc1c(Cc2ccccc2N(C(=O)C(C)C)S(=O)(=O)C(F)(F)F)c(=O)on1C(C)c1ccccc1 (stereo not drawn) [Compound 1-337] | 40

test system: southern crabgrass; assay: as above; assay type: in vivo; details: 120 g/10a active ingredient; emulsion sprayed seven days after seeding; evaluated 14 days after treatment
Method in brief: as §1

Row | SMILES | herbicidal effect (herbicidal rate), southern crabgrass [%]
4 | COCC(C)n1oc(=O)c(Cc2ccccc2N(C(=O)c2ccccc2)S(=O)(=O)C(F)(F)F)c1C (stereo not drawn) [Compound 1-479] | 90
5 | COCC(C)n1oc(=O)c(Cc2ccccc2N(C(=O)OC)S(=O)(=O)C(F)(F)F)c1C (stereo not drawn) [Compound 1-587] | 90
6 | Cc1c(Cc2ccccc2N(C(=O)C(C)C)S(=O)(=O)C(F)(F)F)c(=O)on1C(C)c1ccccc1 (stereo not drawn) [Compound 1-337] | 90

test system: Echinochloa crus-galli; assay: as above; assay type: in vivo; details: 120 g/10a active ingredient; emulsion sprayed seven days after seeding; evaluated 14 days after treatment
Method in brief: as §1

Row | SMILES | herbicidal effect (herbicidal rate), Echinochloa crus-galli [%]
7 | COCC(C)n1oc(=O)c(Cc2ccccc2N(C(=O)c2ccccc2)S(=O)(=O)C(F)(F)F)c1C (stereo not drawn) [Compound 1-479] | 90
8 | COCC(C)n1oc(=O)c(Cc2ccccc2N(C(=O)OC)S(=O)(=O)C(F)(F)F)c1C (stereo not drawn) [Compound 1-587] | 90
9 | Cc1c(Cc2ccccc2N(C(=O)C(C)C)S(=O)(=O)C(F)(F)F)c(=O)on1C(C)c1ccccc1 (stereo not drawn) [Compound 1-337] | 90

test system: Amaranthus viridis; assay: as above; assay type: in vivo; details: 120 g/10a active ingredient; emulsion sprayed seven days after seeding; evaluated 14 days after treatment
Method in brief: as §1

Row | SMILES | herbicidal effect (herbicidal rate), Amaranthus viridis [%]
10 | COCC(C)n1oc(=O)c(Cc2ccccc2N(C(=O)c2ccccc2)S(=O)(=O)C(F)(F)F)c1C (stereo not drawn) [Compound 1-479] | 40
11 | COCC(C)n1oc(=O)c(Cc2ccccc2N(C(=O)OC)S(=O)(=O)C(F)(F)F)c1C (stereo not drawn) [Compound 1-587] | 40
12 | Cc1c(Cc2ccccc2N(C(=O)C(C)C)S(=O)(=O)C(F)(F)F)c(=O)on1C(C)c1ccccc1 (stereo not drawn) [Compound 1-337] | 40

test system: Chenopodium album; assay: Test Example 3: herbicidal effect test by treatment of dry field farming soil (one day after seeding); assay type: in vivo; details: 120 g/10a active ingredient, evaluated 14 days after treatment
Method in brief: (§2)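 Herbicidal rate (%) = {1 − treated/untreated mean plant dry weight} × 100, scored 14 days after spraying, duplicate pots per concentration. Emulsified compound was water-diluted and applied to soil surface one day post-seeding at 120 g a.i. per 10 ares.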

Row | SMILES | herbicidal rate, Chenopodium album [%]
13 | COCC(C)n1oc(=O)c(Cc2ccccc2N(C(=O)c2ccccc2)S(=O)(=O)C(F)(F)F)c1C (stereo not drawn) [Compound 1-479] | 90
14 | COCC(C)n1oc(=O)c(Cc2ccccc2N(C(=O)OC)S(=O)(=O)C(F)(F)F)c1C (stereo not drawn) [Compound 1-587] | 90
15 | Cc1c(Cc2ccccc2N(C(=O)C(C)C)S(=O)(=O)C(F)(F)F)c(=O)on1C(C)c1ccccc1 (stereo not drawn) [Compound 1-337] | 90

test system: southern crabgrass; assay: as above; assay type: in vivo; details: 120 g/10a active ingredient, evaluated 14 days after treatment
Method in brief: as §2

Row | SMILES | herbicidal rate, southern crabgrass [%]
16 | COCC(C)n1oc(=O)c(Cc2ccccc2N(C(=O)c2ccccc2)S(=O)(=O)C(F)(F)F)c1C (stereo not drawn) [Compound 1-479] | 90
17 | COCC(C)n1oc(=O)c(Cc2ccccc2N(C(=O)OC)S(=O)(=O)C(F)(F)F)c1C (stereo not drawn) [Compound 1-587] | 90
18 | Cc1c(Cc2ccccc2N(C(=O)C(C)C)S(=O)(=O)C(F)(F)F)c(=O)on1C(C)c1ccccc1 (stereo not drawn) [Compound 1-337] | 90

test system: Echinochloa crus-galli; assay: as above; assay type: in vivo; details: 120 g/10a active ingredient, evaluated 14 days after treatment
Method in brief: as §2

Row | SMILES | herbicidal rate, Echinochloa crus-galli [%]
19 | COCC(C)n1oc(=O)c(Cc2ccccc2N(C(=O)c2ccccc2)S(=O)(=O)C(F)(F)F)c1C (stereo not drawn) [Compound 1-479] | 90
20 | COCC(C)n1oc(=O)c(Cc2ccccc2N(C(=O)OC)S(=O)(=O)C(F)(F)F)c1C (stereo not drawn) [Compound 1-587] | 90
21 | Cc1c(Cc2ccccc2N(C(=O)C(C)C)S(=O)(=O)C(F)(F)F)c(=O)on1C(C)c1ccccc1 (stereo not drawn) [Compound 1-337] | 90

test system: Amaranthus viridis; assay: as above; assay type: in vivo; details: 120 g/10a active ingredient, evaluated 14 days after treatment
Method in brief: as §2

Row | SMILES | herbicidal rate, Amaranthus viridis [%]
22 | COCC(C)n1oc(=O)c(Cc2ccccc2N(C(=O)c2ccccc2)S(=O)(=O)C(F)(F)F)c1C (stereo not drawn) [Compound 1-479] | 90
23 | COCC(C)n1oc(=O)c(Cc2ccccc2N(C(=O)OC)S(=O)(=O)C(F)(F)F)c1C (stereo not drawn) [Compound 1-587] | 90
24 | Cc1c(Cc2ccccc2N(C(=O)C(C)C)S(=O)(=O)C(F)(F)F)c(=O)on1C(C)c1ccccc1 (stereo not drawn) [Compound 1-337] | 90

test system: broad leaf weeds (Lindernia pyxidaria and Monochoria vaginalis); assay: Test Example 2: herbicidal effect test by treatment during growing period in paddy rice cultivation (seven days after seeding); assay type: in vivo; details: Lindernia pyxidaria, 120 g/10a active ingredient, assessed 14 days after treatment, dry weight vs untreated area
Method in brief: (§3)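 Emulsion formulations, diluted in water, applied dropwise to flooded pots (about 3 cm water) 7 days post-seeding at 120 g a.i./10 ares. Weeds sown 30 seeds each, 0–1 cm deep in puddled paddy soil; greenhouse. Readout: % reduction in plant dry weight vs untreated, day 14, duplicates.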

Row | SMILES | Herbicidal rate (%) Lindernia pyxidaria [%]
25 | COCC(C)n1oc(=O)c(Cc2ccccc2N(C(=O)c2ccccc2)S(=O)(=O)C(F)(F)F)c1C (stereo not drawn) [Compound 1-479] | 90
26 | COCC(C)n1oc(=O)c(Cc2ccccc2N(C(=O)OC)S(=O)(=O)C(F)(F)F)c1C (stereo not drawn) [Compound 1-587] | 90
27 | Cc1c(Cc2ccccc2N(C(=O)C(C)C)S(=O)(=O)C(F)(F)F)c(=O)on1C(C)c1ccccc1 (stereo not drawn) [Compound 1-337] | 90

same assay, conditions: Monochoria vaginalis, 120 g/10a active ingredient, assessed 14 days after treatment, dry weight vs untreated area

Row | SMILES | Herbicidal rate (%) Monochoria vaginalis [%]
28 | COCC(C)n1oc(=O)c(Cc2ccccc2N(C(=O)c2ccccc2)S(=O)(=O)C(F)(F)F)c1C (stereo not drawn) [Compound 1-479] | 90
29 | COCC(C)n1oc(=O)c(Cc2ccccc2N(C(=O)OC)S(=O)(=O)C(F)(F)F)c1C (stereo not drawn) [Compound 1-587] | 90
30 | Cc1c(Cc2ccccc2N(C(=O)C(C)C)S(=O)(=O)C(F)(F)F)c(=O)on1C(C)c1ccccc1 (stereo not drawn) [Compound 1-337] | 90

test system: Scirpus juncoides; assay: as above; assay type: in vivo; details: 120 g/10a active ingredient, assessed 14 days after treatment, dry weight vs untreated area
Method in brief: as §3

Row | SMILES | Herbicidal rate (%) Scirpus juncoides [%]
31 | COCC(C)n1oc(=O)c(Cc2ccccc2N(C(=O)c2ccccc2)S(=O)(=O)C(F)(F)F)c1C (stereo not drawn) [Compound 1-479] | 90
32 | COCC(C)n1oc(=O)c(Cc2ccccc2N(C(=O)OC)S(=O)(=O)C(F)(F)F)c1C (stereo not drawn) [Compound 1-587] | 90
33 | Cc1c(Cc2ccccc2N(C(=O)C(C)C)S(=O)(=O)C(F)(F)F)c(=O)on1C(C)c1ccccc1 (stereo not drawn) [Compound 1-337] | 90

test system: Echinochloa crus-galli; assay: as above; assay type: in vivo; details: 120 g/10a active ingredient, assessed 14 days after treatment, dry weight vs untreated area
Method in brief: as §3

Row | SMILES | Herbicidal rate (%) Echinochloa crus-galli [%]
34 | COCC(C)n1oc(=O)c(Cc2ccccc2N(C(=O)c2ccccc2)S(=O)(=O)C(F)(F)F)c1C (stereo not drawn) [Compound 1-479] | 90
35 | COCC(C)n1oc(=O)c(Cc2ccccc2N(C(=O)OC)S(=O)(=O)C(F)(F)F)c1C (stereo not drawn) [Compound 1-587] | 90
36 | Cc1c(Cc2ccccc2N(C(=O)C(C)C)S(=O)(=O)C(F)(F)F)c(=O)on1C(C)c1ccccc1 (stereo not drawn) [Compound 1-337] | 90

test system: broad leaf weeds (Lindernia pyxidaria and Monochoria vaginalis); assay: Test Example 1: herbicidal effect test by treatment of rice paddy soil (immediately after seeding); assay type: in vivo; details: Lindernia pyxidaria, 120 g/10a active ingredient, dry weight vs untreated area, 14 days after treatment
Method in brief: (§4)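 Applied at 120 g a.i./10 ares as diluted emulsion dropped into flooded (~3 cm) paddy soil pots right after sowing seeds 0–1 cm deep; greenhouse, two replicates. At day 14, dry weight of treated versus untreated plants gives % herbicidal rate.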

Row | SMILES | Herbicidal rate (%) Lindernia pyxidaria [%]
37 | COCC(C)n1oc(=O)c(Cc2ccccc2N(C(=O)c2ccccc2)S(=O)(=O)C(F)(F)F)c1C (stereo not drawn) [Compound 1-479] | 90
38 | COCC(C)n1oc(=O)c(Cc2ccccc2N(C(=O)OC)S(=O)(=O)C(F)(F)F)c1C (stereo not drawn) [Compound 1-587] | 90
39 | Cc1c(Cc2ccccc2N(C(=O)C(C)C)S(=O)(=O)C(F)(F)F)c(=O)on1C(C)c1ccccc1 (stereo not drawn) [Compound 1-337] | 90

same assay, conditions: Monochoria vaginalis, 120 g/10a active ingredient, dry weight vs untreated area, 14 days after treatment

Row | SMILES | Herbicidal rate (%) Monochoria vaginalis [%]
40 | COCC(C)n1oc(=O)c(Cc2ccccc2N(C(=O)c2ccccc2)S(=O)(=O)C(F)(F)F)c1C (stereo not drawn) [Compound 1-479] | 90
41 | COCC(C)n1oc(=O)c(Cc2ccccc2N(C(=O)OC)S(=O)(=O)C(F)(F)F)c1C (stereo not drawn) [Compound 1-587] | 90
42 | Cc1c(Cc2ccccc2N(C(=O)C(C)C)S(=O)(=O)C(F)(F)F)c(=O)on1C(C)c1ccccc1 (stereo not drawn) [Compound 1-337] | 90

test system: Scirpus juncoides; assay: as above; assay type: in vivo; details: 120 g/10a active ingredient, dry weight vs untreated area, 14 days after treatment
Method in brief: as §4

Row | SMILES | Herbicidal rate (%) Scirpus juncoides [%]
43 | COCC(C)n1oc(=O)c(Cc2ccccc2N(C(=O)c2ccccc2)S(=O)(=O)C(F)(F)F)c1C (stereo not drawn) [Compound 1-479] | 90
44 | COCC(C)n1oc(=O)c(Cc2ccccc2N(C(=O)OC)S(=O)(=O)C(F)(F)F)c1C (stereo not drawn) [Compound 1-587] | 90
45 | Cc1c(Cc2ccccc2N(C(=O)C(C)C)S(=O)(=O)C(F)(F)F)c(=O)on1C(C)c1ccccc1 (stereo not drawn) [Compound 1-337] | 90

test system: Echinochloa crus-galli; assay: as above; assay type: in vivo; details: 120 g/10a active ingredient, dry weight vs untreated area, 14 days after treatment
Method in brief: as §4

Row | SMILES | Herbicidal rate (%) Echinochloa crus-galli [%]
46 | COCC(C)n1oc(=O)c(Cc2ccccc2N(C(=O)c2ccccc2)S(=O)(=O)C(F)(F)F)c1C (stereo not drawn) [Compound 1-479] | 90
47 | COCC(C)n1oc(=O)c(Cc2ccccc2N(C(=O)OC)S(=O)(=O)C(F)(F)F)c1C (stereo not drawn) [Compound 1-587] | 90
48 | Cc1c(Cc2ccccc2N(C(=O)C(C)C)S(=O)(=O)C(F)(F)F)c(=O)on1C(C)c1ccccc1 (stereo not drawn) [Compound 1-337] | 90
